Patent publication US20220168427A1 (Ranok Therapeutics (Hangzhou) Co. Ltd., priority 2019, published 2022)
Where a name gives a salt, the structure may show the parent alone.

Tests used:
BRD4 (BD1+BD2) = target: T1, BRD4 (BD1+BD2) (Homo sapiens, UniProt O60885); conditions: read-out: BRD4 Binding Potency
T1 construct: 1.8 μg/ml recombinant BRD4 (BD1+BD2 domains) protein
Method: A master mix was prepared with assay buffer, 1.8 μg/ml recombinant BRD4 (BD1+BD2 domains) protein, and 200-fold dilutions of Tb-labeled donor and dye-labeled acceptor. 40-fold dilutions of acetylated and non-acetylated ligands were prepared in 1×BRD TR-FRET assay buffer. Also, a serial 3-fold dilution of each compound was prepared ranging from 40 μM down until 2.0 nM. In a 384-well plate, 5 μl diluted ligand and 5 μl of compound dilution were added per well to duplicate wells and mixed by brief shaking. Then 10 μl of master mix was added per well, mixed by brief shaking, incubated at 25° C. for 2 hr and fluorescence was measured on an EnVision Plate Reader. The 665 nm/615 nm ratio was calculated from EnVision raw data. Data were normalized using whole-plate averages of “positive” and “negative” readings. A four-parameter “log[inhibitor] vs. response” curve was fitted using GraphPad Prism 7.0.

HSP90α = HSP90α (Homo sapiens, UniProt P07900); experiment: HSP90α Binding Fluorescent Polarization (FP) Assay; conditions: competition with FITC-geldanamycin; read-out: HSP90 Binding Potency
Method: HSP90α Binding Fluorescent Polarization (FP) Assay
A master mix was prepared with assay buffer, BSA and FITC-geldanamycin. In a 96-well plate, a serial 3-fold dilution of each compound was prepared ranging from 40 μM down until 2.0 nM. Also in a 96-well plate, recombinant HSP90α protein was diluted to 28 μg/ml. Then, in a 384-well plate, 10 μl of master mix and 5 μl of compound dilution were added per well to duplicate wells and mixed by brief shaking. Then 5 μl of diluted HSP90α protein was added per well, mixed by brief shaking, incubated at 25° C. for 30, 60 and 120 min and fluorescence was measured on an EnVision Plate Reader. Background-subtracted mP values were calculated from EnVision raw data and a four-parameter “log[inhibitor] vs. response” curve was fitted using GraphPad Prism 7.0.

MV4-11 cells = experiment: MV4-11 Cell Cytotoxicity Assay; format: cell-based, human; conditions: human, MV4-11 cells, CCK-8
Description: % Inhibition=100−(D−B)/(S−B)*100%.
S: The absorbance of the maximum (cells with DMSO)
B: The absorbance of the minimum (medium with DMSO)

| Structure (SMILES) | IC50 (BRD4 (BD1+BD2)) [nM] | IC50 (HSP90α) [nM] | IC50 at 72 h (MV4-11 cells) [nM] |
| --- | --- | --- | --- |
| Cc1sc2c(c1C)C(c1ccc(Cl)cc1)=NC(CC(=O)N[C@H](C)c1ccc(CN3CCN(Cc4ccc(-n5c(O)nnc5-c5cc(C(C)C)c(O)cc5O)cc4)CC3)cc1)c1nnc(C)n1-2 (stereo in doubt) [Compound 70, 2-((6S)-4-(4-chlorophenyl)-2,3,9-trimethyl-6H-thieno[3,2-f][1,2,4]triazolo[4,3-a][1,4]diazepin-6-yl)-N—((R)-1-(4-((4-(4-(3-(2,4-dihydroxy-5-isopropylphenyl)-5-hydroxy-4H-1,2,4-triazol-4-yl)benzyl)piperazin-1-yl)methyl)phenyl)ethyl)acetamide, trifluoroacetic acid] | 100 to 1000 | 100 to 1000 | < 100 |
| Cc1sc2c(c1C)C(c1ccc(Cl)cc1)=N[C@@H](CC(=O)NC(C)c1ccc(CN3CCC(Cc4ccc(-n5c(O)nnc5-c5cc(C(C)C)c(O)cc5O)cc4)CC3)cc1)c1nnc(C)n1-2 (stereo in doubt) [Compound 82, 2-((S)-4-(4-chlorophenyl)-2,3,9-trimethyl-6H-thieno[3,2-f][1,2,4]triazolo[4,3-a][1,4]diazepin-6-yl)-N—((R)-1-(4-((4-(4-(3-(2,4-dihydroxy-5-isopropylphenyl)-5-hydroxy-4H-1,2,4-triazol-4-yl)benzyl)piperidin-1-yl)methyl)phenyl)ethyl)acetamide hydrochloride] | < 100 | – | < 100 |
| Cc1sc2c(c1C)C(c1ccc(Cl)cc1)=NC(CC(=O)N1CCC(Cc3ccc(CN(C)Cc4ccc(-n5c(C(=O)NCC(F)(F)F)nnc5-c5cc(C(C)C)c(O)cc5O)cc4)cc3)CC1)c1nnc(C)n1-2 (stereo in doubt) [Compound 84, (S)-4-(4-(((4-((1-(2-(4-(4-chlorophenyl)-2,3,9-trimethyl-6H-thieno[3,2-f][1,2,4]triazolo[4,3-a][1,4]diazepin-6-yl)acetyl)piperidin-4-yl)methyl)benzyl)(methyl)amino)methyl)phenyl)-5-(2,4-dihydroxy-5-isopropylphenyl)-N-(2,2,2-trifluoroethyl)-4H-1,2,4-triazole-3-carboxamide, trifluoroacetic acid] | > 1000 | 100 to 1000 | < 100 |
| Cc1sc2c(c1C)C(c1ccc(Cl)cc1)=N[C@@H](CC(=O)NCCOCCN[C@@H](C)C(=O)NC(C(=O)N1CCC[C@H]1C(=O)Nc1snnc1-c1ccccc1)C1CCCCC1)c1nnc(C)n1-2 (stereo in doubt) [Compound 127, (S)-1-((2S,5S)-14-((S)-4-(4-chlorophenyl)-2,3,9-trimethyl-6H-thieno[3,2-f][1,2,4]triazolo[4,3-a][1,4]diazepin-6-yl)-2-cyclohexyl-5-methyl-4,13-dioxo-9-oxa-3,6,12-triazatetradecanoyl)-N-(4-phenyl-1,2,3-thiadiazol-5-yl)pyrrolidine-2-carboxamide] | 100 to 1000 | > 1000 | 100 to 1000 |
| CCc1cc(-c2nnc(O)n2-c2ccc(CN3CCN(CC4CCN(C(=O)C[C@@H]5N=C(c6ccc(Cl)cc6)c6c(sc(C)c6C)-n6c(C)nnc65)CC4)CC3)cc2)c(O)cc1O [Compound 1, 2-((6S)-4-(4-chlorophenyl)-2,3,9-trimethyl-6H-thieno[3,2-f][1,2,4]triazolo[4,3-a][1,4]diazepin-6-yl)-1-(4-((4-(4-(3-(5-ethyl-2,4-dihydroxyphenyl)-5-hydroxy-4H-1,2,4-triazol-4-yl)benzyl)piperazin-1-yl)methyl)piperidin-1-yl)ethanone] | 100 to 1000 | 100 to 1000 | – |
| CCc1cc(-c2nnc(O)n2-c2ccc(CN3CCN(CC4CCN(CC[C@@H]5N=C(c6ccc(Cl)cc6)c6c(sc(C)c6C)-n6c(C)nnc65)CC4)CC3)cc2)c(O)cc1O [Compound 2, 4-(4-(4-((4-((1-(2-((6S)-4-(4-chlorophenyl)-2,3,9-trimethyl-6H-thieno[3,2-f][1,2,4]triazolo[4,3-a][1,4]diazepin-6-yl)ethyl)piperidin-4-yl)methyl)piperazin-1-yl)methyl)phenyl)-5-hydroxy-4H-1,2,4-triazol-3-yl)-6-ethylbenzene-1,3-diol, trifluoroacetic acid] | > 1000 | < 100 | 100 to 1000 |
| Cc1sc2c(c1C)C(c1ccc(Cl)cc1)=N[C@@H](CC(=O)N1CCC(Cc3ccc(-n4c(O)nnc4-c4cc(C(C)C)c(O)cc4O)cc3)CC1)c1nnc(C)n1-2 [Compound 3, 2-((6S)-4-(4-chlorophenyl)-2,3,9-trimethyl-6H-thieno[3,2-f][1,2,4]triazolo[4,3-a][1,4]diazepin-6-yl)-1-(4-(4-(3-(2,4-dihydroxy-5-isopropylphenyl)-5-hydroxy-4H-1,2,4-triazol-4-yl)benzyl)piperidin-1-yl)ethanone, trifluoroacetic acid] | > 1000 | 100 to 1000 | < 100 |
| Cc1sc2c(c1C)C(c1ccc(Cl)cc1)=N[C@@H](CC(=O)N1CCC(CN3CCN(Cc4ccc(-n5c(O)nnc5-c5ccc(O)cc5O)cc4)CC3)CC1)c1nnc(C)n1-2 [Compound 4, 2-((6S)-4-(4-chlorophenyl)-2,3,9-trimethyl-6H-thieno[3,2-f][1,2,4]triazolo[4,3-a][1,4]diazepin-6-yl)-1-(4-((4-(4-(3-(2,4-dihydroxyphenyl)-5-hydroxy-4H-1,2,4-triazol-4-yl)benzyl)piperazin-1-yl)methyl)piperidin-1-yl)ethanone, trifluoroacetic acid] | < 100 | > 1000 | 100 to 1000 |
| CCn1c(=O)/c(=C2\Sc3ccccc3N2C)s/c1=C\c1cccc[n+]1CCCNC(=O)C[C@@H]1N=C(c2ccc(Cl)cc2)c2c(sc(C)c2C)-n2c(C)nnc21 [Compound 7, 1-(3-(2-((6S)-4-(4-chlorophenyl)-2,3,9-trimethyl-6H-thieno[3,2-f][1,2,4]triazolo[4,3-a][1,4]diazepin-6-yl)acetamido)propyl)-2-((Z)-((E)-3-ethyl-5-(3-methylbenzo[d]thiazol-2(3H)-ylidene)-4-oxothiazolidin-2-ylidene)methyl)pyridin-1-ium chloride] | < 100 | > 1000 | 100 to 1000 |
| CCNC(=O)c1noc(-c2cc(C(C)C)c(O)cc2O)c1-c1ccc(CN2CCN(CC3CCN(C(=O)C[C@@H]4N=C(c5ccc(Cl)cc5)c5c(sc(C)c5C)-n5c(C)nnc54)CC3)CC2)cc1 [Compound 16, 4-(4-((4-((1-(2-((6S)-4-(4-chlorophenyl)-2,3,9-trimethyl-6H-thieno[3,2-f][1,2,4]triazolo[4,3-a][1,4]diazepin-6-yl)acetyl)piperidin-4-yl)methyl)piperazin-1-yl)methyl)phenyl)-5-(2,4-dihydroxy-5-isopropylphenyl)-N-ethylisoxazole-3-carboxamide, trifluoroacetic acid] | 100 to 1000 | 100 to 1000 | – |
| Cc1sc2c(c1C)C(c1ccc(Cl)cc1)=N[C@@H](CC(=O)N1CCC(CN3CCN(Cc4ccc(-n5c(O)nnc5-c5cc(C(C)C)c(O)cc5O)cc4)CC3)CC1)c1nnc(C)n1-2 [Compound 40, 2-((6S)-4-(4-chlorophenyl)-2,3,9-trimethyl-6H-thieno[3,2-f][1,2,4]triazolo[4,3-a][1,4]diazepin-6-yl)-1-(4-((4-(4-(3-(2,4-dihydroxy-5-isopropylphenyl)-5-hydroxy-4H-1,2,4-triazol-4-yl)benzyl)piperazin-1-yl)methyl)piperidin-1-yl)ethanone, trifluoroacetic acid] | 100 to 1000 | < 100 | – |
| CCc1cc(-c2nnc(C(N)=O)n2-c2ccc(CN3CCN(CC4CCN(C(=O)C[C@@H]5N=C(c6ccc(Cl)cc6)c6c(sc(C)c6C)-n6c(C)nnc65)CC4)CC3)cc2)c(O)cc1O [Compound 120, (S)-4-(4-((4-((1-(2-(4-(4-chlorophenyl)-2,3,9-trimethyl-6H-thieno[3,2-f][1,2,4]triazolo[4,3-a][1,4]diazepin-6-yl)acetyl)piperidin-4-yl)methyl)piperazin-1-yl)methyl)phenyl)-5-(5-ethyl-2,4-dihydroxyphenyl)-4H-1,2,4-triazole-3-carboxamide hydrochloride] | < 100 | 100 to 1000 | – |
| CCc1cc(-c2nnc(C(N)=O)n2-c2ccc(CN3CCN(CC4CCN(C(=O)C[C@@H]5N=C(c6ccc(Cl)cc6)c6c(sc(C)c6C)-n6c(C)nnc65)CC4)CC3)cc2)c(O)cc1O [Compound 121, (S)-4-(4-((4-((1-(2-(4-(4-chlorophenyl)-2,3,9-trimethyl-6H-thieno[3,2-f][1,2,4]triazolo[4,3-a][1,4]diazepin-6-yl)acetyl)piperidin-4-yl)methyl)piperazin-1-yl)methyl)phenyl)-5-(5-ethyl-2,4-dihydroxyphenyl)-4H-1,2,4-triazole-3-carboxamide hydrochloride] | > 1000 | < 100 | – |
